Tested on: MV-4-11 cells
Assay: Gene expression microarray analysis (Affymetrix PrimeView) and GSEA
Assay type: cell-based, human
Design: RFU PODN (11730768_x_at) / Fold change /veh PODN (11730768_x_at) / RFU LINC00158 (11744669_a_at) / Fold change /veh LINC00158 (11744669_a_at) / RFU DUSP10 (11751237_a_at) / Fold change /veh DUSP10 (11751237_a_at) / RFU ID3 (11757404_x_at) / Fold change /veh ID3 (11757404_x_at) / RFU PLEKHG5 (11737974_s_at) / Fold change /veh PLEKHG5 (11737974_s_at) / RFU LRRC4B (11730491_at) / Fold change /veh LRRC4B (11730491_at) / RFU GIMAP4 (11747438_a_at) / Fold change /veh GIMAP4 (11747438_a_at) / RFU KRT8 (11758183_x_at) / Fold change /veh KRT8 (11758183_x_at) / RFU CNN1 (11734310_a_at) / Fold change /veh CNN1 (11734310_a_at) / RFU VPS37D (11726825_at) / Fold change /veh VPS37D (11726825_at) / RFU C10orf10 (11716522_x_at) / Fold change /veh C10orf10 (11716522_x_at) / RFU KIR2DL2 /// KIR2DL4 /// KIR2DL5A /// KIR2DL5B /// KIR2DS1 /// KIR2DS2 /// KIR2DS3 /// KIR2DS4 /// KIR3DL3 /// KIR3DL3 /// KIR3DS1 (11738374_at) / Fold change /veh KIR2DL2 /// KIR2DL4 /// KIR2DL5A /// KIR2DL5B /// KIR2DS1 /// KIR2DS2 /// KIR2DS3 /// KIR2DS4 /// KIR3DL3 /// KIR3DL3 /// KIR3DS1 (11738374_at) / RFU C1QL1 (11718748_at) / Fold change /veh C1QL1 (11718748_at) / RFU TMPRSS4 (11747572_a_at) / Fold change /veh TMPRSS4 (11747572_a_at) / RFU HAMP (11756126_x_at) / Fold change /veh HAMP (11756126_x_at) / RFU RNFT2 (11725882_a_at) / Fold change /veh RNFT2 (11725882_a_at) / RFU NR4A2 (11747474_a_at) / Fold change /veh NR4A2 (11747474_a_at) / RFU ABCC12 (11746883_a_at) / Fold change /veh ABCC12 (11746883_a_at) / RFU TMEM136 (11760407_x_at) / Fold change /veh TMEM136 (11760407_x_at) / RFU CLDN22 /// WWC2 (11732394_at) / Fold change /veh CLDN22 /// WWC2 (11732394_at) / RFU HLA-DPB1 (11760878_x_at) / Fold change /veh HLA-DPB1 (11760878_x_at) / RFU SPINT1 (11716480_a_at) / Fold change /veh SPINT1 (11716480_a_at) / RFU GAP43 (11754022_s_at) / Fold change /veh GAP43 (11754022_s_at) / RFU A4GNT (11735810_at) / Fold change /veh A4GNT (11735810_at) / RFU PRB3 (11715151_x_at) / Fold change /veh PRB3 (11715151_x_at) / RFU TUBB4B (11761932_at) / Fold change /veh TUBB4B (11761932_at) / RFU CAPN14 (11732068_a_at) / Fold change /veh CAPN14 (11732068_a_at) / RFU TMCC2 (11721928_a_at) / Fold change /veh TMCC2 (11721928_a_at) / RFU IRGQ (11745062_a_at) / Fold change /veh IRGQ (11745062_a_at) / RFU FAM174B (11720279_a_at) / Fold change /veh FAM174B (11720279_a_at) / RFU TMPRSS4 (11748680_a_at) / Fold change /veh TMPRSS4 (11748680_a_at) / RFU FAM212B (11763350_a_at) / Fold change /veh FAM212B (11763350_a_at) / RFU PLEKHG5 (11743358_a_at) / Fold change /veh PLEKHG5 (11743358_a_at) / RFU ZSCAN30 (11745921_a_at) / Fold change /veh ZSCAN30 (11745921_a_at) / RFU CMKLR1 (11741424_a_at) / Fold change /veh CMKLR1 (11741424_a_at) / RFU LOC101060620 /// MAPK8IP1 (11723275_at) / Fold change /veh LOC101060620 /// MAPK8IP1 (11723275_at) / RFU SPTSSB (11747773_x_at) / Fold change /veh SPTSSB (11747773_x_at) / RFU PRSS12 (11739890_at) / Fold change /veh PRSS12 (11739890_at) / RFU BIN1 (11741810_x_at) / Fold change /veh BIN1 (11741810_x_at) / RFU WNT11 (11732464_a_at) / Fold change /veh WNT11 (11732464_a_at) / RFU C10orf10 (11716521_a_at) / Fold change /veh C10orf10 (11716521_a_at) / RFU C5orf56 (11738089_at) / Fold change /veh C5orf56 (11738089_at) / RFU CYB561 (11721691_x_at) / Fold change /veh CYB561 (11721691_x_at) / RFU ANKRD19P (11752326_a_at) / Fold change /veh ANKRD19P (11752326_a_at) / RFU OR2T12 /// OR2T33 /// OR2T8 (11738714_s_at) / Fold change /veh OR2T12 /// OR2T33 /// OR2T8 (11738714_s_at) / RFU VCAN (11748164_a_at) / Fold change /veh VCAN (11748164_a_at) / RFU JSRP1 (11732532_at) / Fold change /veh JSRP1 (11732532_at) / RFU KRTAP10-11 (11738290_x_at) / Fold change /veh KRTAP10-11 (11738290_x_at) / RFU MYO3A (11730013_a_at) / Fold change /veh MYO3A (11730013_a_at) / RFU EBF3 (11725865_a_at) / Fold change /veh EBF3 (11725865_a_at) / RFU CAMK2N1 (11719241_x_at) / Fold change /veh CAMK2N1 (11719241_x_at) / RFU C5orf56 (11738088_a_at) / Fold change /veh C5orf56 (11738088_a_at) / RFU OLFML3 (11715873_a_at) / Fold change /veh OLFML3 (11715873_a_at) / RFU LOC100653217 /// NTM (11731650_a_at) / Fold change /veh LOC100653217 /// NTM (11731650_a_at) / RFU MAPK11 (11762145_a_at) / Fold change /veh MAPK11 (11762145_a_at) / RFU FIZ1 (11724087_x_at) / Fold change /veh FIZ1 (11724087_x_at) / RFU OASL (11726364_x_at) / Fold change /veh OASL (11726364_x_at) / RFU SOX15 (11748057_x_at) / Fold change /veh SOX15 (11748057_x_at) / RFU CD79A (11719716_a_at) / Fold change /veh CD79A (11719716_a_at) / RFU HIST1H1D (11736915_at) / Fold change /veh HIST1H1D (11736915_at) / RFU CASKIN2 (11723855_a_at) / Fold change /veh CASKIN2 (11723855_a_at) / RFU LOC730098 (11760151_x_at) / Fold change /veh LOC730098 (11760151_x_at) / RFU OR4N2 (11742367_at) / Fold change /veh OR4N2 (11742367_at) / RFU PRRT2 (11749266_a_at) / Fold change /veh PRRT2 (11749266_a_at) / RFU SNX32 (11753110_a_at) / Fold change /veh SNX32 (11753110_a_at) / RFU CDHR5 (11726645_a_at) / Fold change /veh CDHR5 (11726645_a_at) / RFU RCAN1 (11760418_a_at) / Fold change /veh RCAN1 (11760418_a_at) / RFU FAM167A (11723789_a_at) / Fold change /veh FAM167A (11723789_a_at) / RFU FAM26E (11764081_at) / Fold change /veh FAM26E (11764081_at) / RFU ISYNA1 (11749810_s_at) / Fold change /veh ISYNA1 (11749810_s_at) / RFU ACY1 (11761880_at) / Fold change /veh ACY1 (11761880_at) / RFU 11764098_at / Fold change /veh 11764098_at / RFU SAMD14 (11745864_x_at) / Fold change /veh SAMD14 (11745864_x_at) / RFU NPB (11741838_a_at) / Fold change /veh NPB (11741838_a_at) / RFU TMPRSS6 (11731388_a_at) / Fold change /veh TMPRSS6 (11731388_a_at) / RFU KRTAP10-2 (11738614_at) / Fold change /veh KRTAP10-2 (11738614_at) / RFU ARHGAP8 /// PRR5-ARHGAP8 (11727945_x_at) / Fold change /veh ARHGAP8 /// PRR5-ARHGAP8 (11727945_x_at) / RFU KRTAP5-7 /// NADSYN1 (11734609_at) / Fold change /veh KRTAP5-7 /// NADSYN1 (11734609_at) / RFU RASL12 (11751679_a_at) / Fold change /veh RASL12 (11751679_a_at) / RFU CDKN2B (11736163_a_at) / Fold change /veh CDKN2B (11736163_a_at) / RFU PRF1 (11729649_at) / Fold change /veh PRF1 (11729649_at) / RFU, ZNF638 /// ZNF638-IT1 / Fold change vs veh, ZNF638 /// ZNF638-IT1 / RFU, PANK3 / Fold change vs veh, PANK3 / RFU, SH3YL1 / Fold change vs veh, SH3YL1 / RFU, ZEB2 / Fold change vs veh, ZEB2 / RFU, NRIP1 / Fold change vs veh, NRIP1 / RFU, PTTG1IP / Fold change vs veh, PTTG1IP / RFU, CAPN2 / Fold change vs veh, CAPN2 / RFU, MED14 / Fold change vs veh, MED14 / RFU, SNORA58 / Fold change vs veh, SNORA58 / RFU, C1orf63 / Fold change vs veh, C1orf63 / RFU, LRRFIP1 / Fold change vs veh, LRRFIP1 / RFU, NDUFAF7 / Fold change vs veh, NDUFAF7 / RFU, SLC12A2 / Fold change vs veh, SLC12A2 / RFU, IBTK / Fold change vs veh, IBTK / RFU, ESF1 / Fold change vs veh, ESF1 / Fold change vs veh, TMEM50B / RFU, TAOK1 / Fold change vs veh, TAOK1 / RFU, ACBD3 / Fold change vs veh, ACBD3 / RFU, TMA16 / Fold change vs veh, TMA16 / RFU, RWDD3 / Fold change vs veh, RWDD3 / RFU, BCAT1 / Fold change vs veh, BCAT1 / RFU, EDEM3 / Fold change vs veh, EDEM3 / RFU, TMEM33 / Fold change vs veh, TMEM33 / RFU, WDR75 / Fold change vs veh, WDR75 / RFU, AHCTF1 / Fold change vs veh, AHCTF1 / RFU, TFRC / Fold change vs veh, TFRC / RFU, ZDHHC17 / Fold change vs veh, ZDHHC17 / RFU, NOM1 / Fold change vs veh, NOM1 / RFU, ARL8B / Fold change vs veh, ARL8B / RFU, ZBTB11 / Fold change vs veh, ZBTB11 / RFU, TAMM41 / Fold change vs veh, TAMM41 / RFU, KIAA1704 /// LOC100996395 / Fold change vs veh, KIAA1704 /// LOC100996395 / RFU, ING1 / Fold change vs veh, ING1 / RFU, TRMT61B / Fold change vs veh, TRMT61B / RFU, FUBP3 / Fold change vs veh, FUBP3 / RFU, TP53 / Fold change vs veh, TP53 / RFU, TNKS2 / Fold change vs veh, TNKS2 / RFU, ZFP14 / Fold change vs veh, ZFP14 / RFU, ACTR2 / Fold change vs veh, ACTR2 / RFU, PPP3R1 / Fold change vs veh, PPP3R1 / RFU, PIK3R1 / Fold change vs veh, PIK3R1 / RFU, HNRNPA1 / Fold change vs veh, HNRNPA1 / RFU, RNF170 / Fold change vs veh, RNF170 / RFU, ZNF28 / Fold change vs veh, ZNF28 / RFU, RNGTT / Fold change vs veh, RNGTT / RFU, OGT / Fold change vs veh, OGT / RFU, BRD1 / Fold change vs veh, BRD1 / RFU, MARS / Fold change vs veh, MARS / RFU, ZNF655 / Fold change vs veh, ZNF655 / RFU, FAHD1 / Fold change vs veh, FAHD1 / RFU, BDP1 / Fold change vs veh, BDP1 / RFU, LRRCC1 / Fold change vs veh, LRRCC1 / RFU, ARID1A / Fold change vs veh, ARID1A / RFU, ZNF146 / Fold change vs veh, ZNF146 / RFU, ZNF330 / Fold change vs veh, ZNF330 / RFU, GPN3 / Fold change vs veh, GPN3 / RFU, C9orf123 / Fold change vs veh, C9orf123 / RFU, N4BP2L2 / Fold change vs veh, N4BP2L2 / RFU, ARFIP1 / Fold change vs veh, ARFIP1 / RFU, FAM179B / Fold change vs veh, FAM179B / RFU, BCL10 / Fold change vs veh, BCL10 / RFU, UHRF1BP1L / Fold change vs veh, UHRF1BP1L / RFU, BET1 / Fold change vs veh, BET1 / RFU, CNOT2 / Fold change vs veh, CNOT2 / RFU, ZNF268 / Fold change vs veh, ZNF268 / Fold change vs veh, ZNF507 / RFU, DGCR2 / Fold change vs veh, DGCR2 / RFU, WDSUB1 / Fold change vs veh, WDSUB1 / Fold change vs veh, HSP90B1 /// MIR3652 / RFU, ADSS / Fold change vs veh, ADSS / RFU, GK / Fold change vs veh, GK / RFU, ZNF148 / Fold change vs veh, ZNF148 / RFU, TAF9 / Fold change vs veh, TAF9 / RFU, SLC1A5 / Fold change vs veh, SLC1A5 / RFU, SLMO2 / Fold change vs veh, SLMO2 / RFU, ABCC4 / Fold change vs veh, ABCC4 / RFU, LOC101060439 /// RAP1B / Fold change vs veh, LOC101060439 /// RAP1B / RFU, RFX7 / Fold change vs veh, RFX7 / RFU, GTPBP10 / Fold change vs veh, GTPBP10 / RFU, CNEP1R1 / Fold change vs veh, CNEP1R1 / RFU, BIVM-ERCC5 /// ERCC5 / Fold change vs veh, BIVM-ERCC5 /// ERCC5 / RFU, ILF3 / Fold change vs veh, ILF3 / RFU 11762660_at / Fold change /veh 11762660_at / RFU VCAN (11757783_s_at) / Fold change /veh VCAN (11757783_s_at) / RFU DDX43 (11728927_at) / Fold change /veh DDX43 (11728927_at) / RFU KRT8 (11758188_x_at) / Fold change /veh KRT8 (11758188_x_at) / RFU NKD1 (11759106_at) / Fold change /veh NKD1 (11759106_at) / RFU SRD5A1 (11742802_a_at) / Fold change /veh SRD5A1 (11742802_a_at) / RFU TPSAB1 /// TPSB2 (11721975_s_at) / Fold change /veh TPSAB1 /// TPSB2 (11721975_s_at) / RFU GSTM3 (11746129_a_at) / Fold change /veh GSTM3 (11746129_a_at) / RFU IL23R (11737362_x_at) / Fold change /veh IL23R (11737362_x_at) / RFU TMEM51 (11727254_a_at) / Fold change /veh TMEM51 (11727254_a_at) / RFU PIWIL2 (11732686_x_at) / Fold change /veh PIWIL2 (11732686_x_at) / RFU ORM1 (11744905_x_at) / Fold change /veh ORM1 (11744905_x_at) / RFU CCDC152 (11743942_at) / Fold change /veh CCDC152 (11743942_at) / RFU ECM1 (11717891_a_at) / Fold change /veh ECM1 (11717891_a_at) / RFU IL23R (11748794_a_at) / Fold change /veh IL23R (11748794_a_at) / RFU TNFAIP8L3 (11732012_x_at) / Fold change /veh TNFAIP8L3 (11732012_x_at) / RFU MBOAT4 (11741988_at) / Fold change /veh MBOAT4 (11741988_at) / RFU 11764193_at / Fold change /veh 11764193_at / RFU TMEM53 (11763286_at) / Fold change /veh TMEM53 (11763286_at) / RFU MAGEB2 (11727129_at) / Fold change /veh MAGEB2 (11727129_at) / RFU TMEM200A (11744735_a_at) / Fold change /veh TMEM200A (11744735_a_at) / RFU CCDC152 (11751479_a_at) / Fold change /veh CCDC152 (11751479_a_at) / RFU FAM211A (11726209_a_at) / Fold change /veh FAM211A (11726209_a_at) / RFU RGS16 (11746705_a_at) / Fold change /veh RGS16 (11746705_a_at) / RFU VCAN (11755009_s_at) / Fold change /veh VCAN (11755009_s_at) / RFU RHOB (11743442_s_at) / Fold change /veh RHOB (11743442_s_at) / RFU RGS16 (11720943_a_at) / Fold change /veh RGS16 (11720943_a_at) / RFU RGS16 (11720944_at) / Fold change /veh RGS16 (11720944_at) / RFU, VPS4B / Fold change vs veh, VPS4B / RFU, CREB1 / Fold change vs veh, CREB1 / RFU, DNAJC13 / Fold change vs veh, DNAJC13 / RFU, GNAQ / Fold change vs veh, GNAQ / RFU, CDK5R1 / Fold change vs veh, CDK5R1 / RFU, ZRANB3 / Fold change vs veh, ZRANB3 / RFU, CUL4A / Fold change vs veh, CUL4A / RFU, CCNY / Fold change vs veh, CCNY / RFU, UFL1 / Fold change vs veh, UFL1 / RFU, COG3 / Fold change vs veh, COG3 / RFU, DIAPH2 / Fold change vs veh, DIAPH2 / RFU, SKA2 / Fold change vs veh, SKA2 / RFU, AFF3 / Fold change vs veh, AFF3 / RFU, LMF1 / Fold change vs veh, LMF1 / RFU, IPO11 / Fold change vs veh, IPO11 / RFU, DFFB / Fold change vs veh, DFFB / RFU, FOXP1 / Fold change vs veh, FOXP1 / RFU, CARD8 / Fold change vs veh, CARD8 / RFU, STRN3 / Fold change vs veh, STRN3 / RFU, ADK / Fold change vs veh, ADK / RFU, RASSF2 / Fold change vs veh, RASSF2 / RFU, WIPF1 / Fold change vs veh, WIPF1 / RFU, LARP1B / Fold change vs veh, LARP1B / RFU, RASA1 / Fold change vs veh, RASA1 / RFU, RB1 / Fold change vs veh, RB1 / RFU, PPFIA1 / Fold change vs veh, PPFIA1 / RFU, MAT2A / Fold change vs veh, MAT2A / RFU, CCT5 / Fold change vs veh, CCT5 / RFU, WDR92 / Fold change vs veh, WDR92 / RFU, CUX1 / Fold change vs veh, CUX1 / RFU, TTC7A / Fold change vs veh, TTC7A / RFU, TMEM135 / Fold change vs veh, TMEM135 / RFU, DEPTOR / Fold change vs veh, DEPTOR / RFU, CPM / Fold change vs veh, CPM / RFU, DNAJB6 / Fold change vs veh, DNAJB6 / RFU, CACNA2D3 / Fold change vs veh, CACNA2D3 / RFU, DTX4 / Fold change vs veh, DTX4 / RFU, TFCP2 / Fold change vs veh, TFCP2 / RFU, GMCL1 /// GMCL1P1 / Fold change vs veh, GMCL1 /// GMCL1P1 / RFU, AEBP2 / Fold change vs veh, AEBP2 / RFU, SNHG1 /// SNORD22 /// SNORD25 /// SNORD26 /// SNORD27 /// SNORD28 /// SNORD29 /// SNORD31 / Fold change vs veh, SNHG1 /// SNORD22 /// SNORD25 /// SNORD26 /// SNORD27 /// SNORD28 /// SNORD29 /// SNORD31 / Fold change (Aza/veh), C12orf56 (ProbeSet 11735607_a_at) / Fold change (ACY-1035/veh), C12orf56 (ProbeSet 11735607_a_at) / Fold change (Aza/veh), FGFR1OP (ProbeSet 11751329_s_at) / Fold change (ACY-1035/veh), FGFR1OP (ProbeSet 11751329_s_at) / Fold change (Aza/veh), VPS36 (ProbeSet 11739960_a_at) / Fold change (ACY-1035/veh), VPS36 (ProbeSet 11739960_a_at) / RFU SYPL1 (11715823_x_at) / Fold change /veh SYPL1 (11715823_x_at) / RFU IGFBP7 (11715501_s_at) / Fold change /veh IGFBP7 (11715501_s_at) / RFU REEP3 (11722064_at) / Fold change /veh REEP3 (11722064_at) / RFU IGLL1 (11728026_x_at) / Fold change /veh IGLL1 (11728026_x_at): dose or concentration left out as unconfirmed
Conditions: MV-4-11 cells, 48 hours

With `Nc1ncn([C@@H]2O[C@H](CO)[C@@H](O)[C@H]2O)c(=O)n1` [azacitidine] the “RFU TUBB4B (11761932_at)” value was 18.89 RFU.
